Experiments:
DA2 receptor = assay: Goldberg in situ femoral arterial preparation (DA2 assay), intra-arterial injection; assay type: in vivo, dog; details: for ED50: blood flow increase, i.a. bolus into femoral artery, anesthetized dog; for Relative Efficacy to DA2 Standard: optimal response of test compound divided by optimal response of DPDA; for Relative Potency to DA2 Standard: standard (DPDA) ED50 divided by test compound ED50
Experimental: (§1) The compounds were subsequently tested following intra-arterial administration in an in situ renal and femoral arterial preparation in the dog, as developed by L.I. Goldberg, to test for DA1 and DA2 dopamine activity, respectively. Details of the methodology are provided in the European J. Pharmacol. 89 :137, 1983, as well as in Hypertension 6 :1-25, 1984.
as §1, with “compounds of this invention” for “compounds”, “were” for “were subsequently”, “Pharmacol. ,” for “Pharmacol.”, “Hypertension ,” for “Hypertension”, “1984. J. L. McNay, L. I. Goldberg JPET 151 :23-31, 1966.” for “1984.”
(§2) The compounds were injected directly into the renal or femoral artery for analysis of DA, or DA2 activity, respectively. […] The compounds were tested for relative activity in comparison to the standard DA, agonist, dopamine or the standard DA2 agonist, DPDA. Specific DA, or DA2 activity of the tested compound was verified by Sch 23390 or domperidone blockade.
(§3) Adult mongrel dogs of either sex (12-20 kg) were anesthetized with pentobarbital sodium (33 mg/kg, i.v.). The animals were intubated and ventilated with room air using a Harvard respirator.
as §1, with “compounds of this invention” for “compounds”, “were” for “were subsequently”, “Pharmacol. ,” for “Pharmacol.”, “Hypertension ,” for “Hypertension”, “1984. J. L. McNay, L. I. Goldberg JPET 151 :23-31, 1966” for “1984.”
as §2, with “of DA1” for “of DA,”, “standard DA1” for “standard DA,”
The thoracic aorta was catheterized with a Millar micro-tip (size 5F) transducer via the right carotid artery for blood pressure monitoring. The right external jugular vein was cannulated with PE-160 tubing for supplemental pentobarbital administration. The left femoral artery was isolated and an electromagnetic flowprobe of the appropriate size (8-11 mm circ.) was placed around the artery and connected to a Caroline Medical electromagnetic flowmeter. Surface ECG leads were placed subcutaneously on the chest and limbs to monitor heart rate. A 25 gauge 3/4" needle bent 90` , 4 mm from the tip, was placed in the femoral artery proximal to the probe and connected to an infusion pump delivering saline at a constant rate of 1 ml/min. Following a saline and bradykinin challenge (0.02 to 0.04 nmoles, in 0.2 ml saline, i.a.), a dose response curve for DPDA was generated by injecting 4-fold increasing doses i.a. ranging from 3 to 48 nmoles in 0.2 ml saline. Test compounds were injected similarly in 4-fold increasing doses up to 3000 nmoles. Compounds were then repeated at their optimal dose following domperidone pretreatment (10-40 Ilg/kg, iv).
Efficacy ratios were determined by division of the optimal response of the test compound by the optimal response of the standard agent. The optimal dose of compound was defined as that which produced a maximum increase in blood flow before causing a change in systemic blood pressure. ED50 values were derived by regression analysis from individually generated dose response curves. Potency ratios were the quotients calculated from the division of the standard agent EDso by the ED50 of the test compound. […] If the inhibition of the test compound was similar to that of dopamine or DPDA, the compound was considered to be a DA, or DA2 agonist, respectively.

DA1 receptor = assay: Goldberg in situ renal arterial preparation (renal DA1 assay), intra-arterial injection; assay type: in vivo, dog; details: for Relative Efficacy to DA1 Standard: optimal response of test compound divided by optimal response of dopamine; for ED50: renal blood flow increase, i.a. bolus into renal artery, anesthetized dog; for Relative Potency to DA1 Standard: standard (dopamine) ED50 divided by test compound ED50
Experimental: as §1
as §1, with “compounds of this invention” for “compounds”, “were” for “were subsequently”, “Pharmacol. ,” for “Pharmacol.”, “Hypertension ,” for “Hypertension”, “1984. J. L. McNay, L. I. Goldberg JPET 151 :23-31, 1966.” for “1984.”
as §2, §3
as §1, with “compounds of this invention” for “compounds”, “were” for “were subsequently”, “Pharmacol. ,” for “Pharmacol.”, “Hypertension ,” for “Hypertension”, “1984. J. L. McNay, L. I. Goldberg JPET 151 :23-31, 1966” for “1984.”
as §2, with “of DA1” for “of DA,”, “standard DA1” for “standard DA,”
The abdominal aorta was catheterized with a Millar micro-tip (size: 5F) transducer via the right femoral artery for blood pressure monitoring. The right femoral vein was cannulated with PE-160 tubing for iv saline infusion, as well as supplemental pentobarbital administration. The left renal artery was isolated through a lateral abdominal incision. An electromagnetic flowprobe of the appropriate size (8-11 mm circ.) was placed around the artery and connected to a Carolina Medical electromagnetic flowmeter. Surface ECG leads were placed subcutaneously on the chest and limbs to monitor heart rate. A 25 gauge 3/4" needle bent 90°, 4 mm from the tip, was placed in the renal artery proximal to the probe and connected to an infusion pump delivering saline at a constant rate of 1 ml/min. Following a saline and 1µg norepinephrine (NE) challenge, both given in an injection volume of 0.2 ml, the animal was treated with a phenoxybenzamine, 0.5 mg/kg/min i.a., infusion for a duration of 10-20 minutes as necessary to achieve a complete blockade of the NE challenge. Blood pressure was maintained by supplemental saline infusion (10-20 ml/kg, iv). Bradykinin, a standard for nonspecific vasodilation, was given at 0.60 nmole doses, in 0.2 ml saline, i.a., prior to generating a dose response curve for dopamine in which 4-fold increasing doses, ranging from 3 to 48 nmoles, were injected i.a. in 0.2 ml of saline (i.a. bolus). Test compounds were injected similarly in 4-fold increasing doses up to a maximum of 3000 nmoles. Compounds were then repeated at their optimal dose following Sch 23390 pretreatment (0.05 - 0.10 mg/kg, iv).
Efficacy ratios were determined by division of the optimal response of the test compound by the optimal response of the standard agent.

Row | Compound | ED50 (DA2 receptor) | Relative Efficacy to DA2 Standard (DA2 receptor) | Relative Potency to DA2 Standard (DA2 receptor) | Relative Efficacy to DA1 Standard (DA1 receptor) | ED50 (DA1 receptor) | Relative Potency to DA1 Standard (DA1 receptor)
1 | Br.Br.CCCN(CCCCCCN1CCC[C@@H]1Cc1ccc(O)c(O)c1)CCc1ccc(O)cc1 [Test Compound 1, (R)-2-(3,4-dihydroxybenzyl)-1-[6-(N-(4-hydroxyphenethyl)-N-propylamino)hexyl]pyrrolidine dihydrobromide] | 0.02 nmol | 1.29 | 327.50 | 1.10 | 0.87 nmol | 6.44
2 | Br.Br.CCCN(CCCCCCN1CCC[C@@H]1Cc1ccc(O)c(O)c1)CCc1cccc(O)c1 [Test Compound 2, (R)-2-(3,4-dihydroxybenzyl)-1-[6-(N-(3-hydroxyphenethyl)-N-propylamino)hexyl]pyrrolidine dihydrobromide] | 0.04 nmol | 1.26 | 216.00 | 0.93 | 0.34 nmol | 17.47

Source: patent EP0426075A1, “Benzylpyrrolidine derivatives as dopamine agonists” (SYNTEX (U.S.A.) INC., priority 1989, dated 1991)
